# Results: ChEMBL document CHEMBL5223092, “Antibacterial activities of plant-derived xanthones” (RSC Med Chem, 2022)
# Experiments:
# Salmonella typhimurium [1] = test: Antibacterial activity against Salmonella typhimurium TISTR 292 incubated for 16 to 18 hrs by Mueller-Hinton broth based two-fold serial dilution method; type: functional, Salmonella enterica subsp. enterica serovar Typhimurium; details: Salmonella enterica, time 16-18 hrs
# [2] = Lipophilicity, logP of the compound; type: physicochemical; details: octanol/water
# [3] = test system: Staphylococcus epidermidis; test: Antibacterial activity against Staphylococcus epidermis ATCC 12228 by Mueller-Hinton broth based two-fold serial dilution method; type: functional
# Staphylococcus aureus [4] = test: Antibacterial activity against Staphylococcus aureus TISTR 1466 by Mueller-Hinton broth based two-fold serial dilution method; type: functional
# Bacillus cereus = test: Antibacterial activity against Bacillus cereus TISTR 688 by Mueller-Hinton broth based two-fold serial dilution method; type: functional
# Salmonella typhimurium [5] = test: Antibacterial activity against Salmonella typhimurium TISTR 292 by Mueller-Hinton broth based two-fold serial dilution method; type: functional, Salmonella enterica subsp. enterica serovar Typhimurium; details: Salmonella enterica
# Staphylococcus aureus [6] = test: Antibacterial activity against methicillin resistant Staphylococcus aureus SK1 by Mueller-Hinton broth based two-fold serial dilution method; type: functional
# Micrococcus luteus [7] = test: Antibacterial activity against Micrococcus luteus TISTR 884 by Mueller-Hinton broth based two-fold serial dilution method; type: functional
# Bacillus subtilis [8] = test: Antibacterial activity against Bacillus subtilis TISTR 008 by Mueller-Hinton broth based two-fold serial dilution method; type: functional
# Vibrio vulnificus = test: Antibacterial activity against Vibrio vulnificus MCCC E1758; type: functional
# Escherichia coli [9] = test: Antibacterial activity against Escherichia coli NIHJ K 12; type: functional
# Vibrio campbellii = test: Antibacterial activity against Vibrio campbellii MCCC E333; type: functional
# Vibrio rotiferianus = test: Antibacterial activity against Vibrio rotiferianus MCCC E385; type: functional
# Staphylococcus aureus [10] = test: Antibacterial activity against methicillin resistant Staphylococcus aureus by liquid dilution method; type: functional
# Staphylococcus aureus [11] = test: Antibacterial activity against Staphylococcus aureus NIHJ 209p; type: functional
# Micrococcus luteus [12] = test: Antibacterial activity against Micrococcus luteus ATCC 9341 incubated for 20 hrs by Mueller-Hinton broth based agar based dilution method; type: functional
# Staphylococcus aureus [13] = test: Antibacterial activity against methicillin resistant Staphylococcus aureus incubated for 20 hrs by Mueller-Hinton broth based agar based dilution method; type: functional
# Bacillus subtilis [14] = test: Antibacterial activity against Bacillus subtilis PCI 219 incubated for 20 hrs by Mueller-Hinton broth based agar based dilution method; type: functional
# Staphylococcus aureus [15] = test: Antibacterial activity against methicillin sensitive Staphylococcus aureus JCM 2874 incubated for 20 hrs by Mueller-Hinton broth based agar based dilution method; type: functional
# Enterococcus faecalis [16] = test: Antibacterial activity against Enterococcus faecalis JCM 7783 incubated for 20 hrs by Mueller-Hinton broth based agar based dilution method; type: functional
# Enterococcus faecalis [17] = test: Antibacterial activity against Enterococcus faecalis JU 1856 incubated for 20 hrs by Mueller-Hinton broth based agar based dilution method; type: functional
# Enterococcus faecalis [18] = test: Antibacterial activity against Enterococcus faecalis JU 1782 incubated for 20 hrs by Mueller-Hinton broth based agar based dilution method; type: functional
# Staphylococcus aureus [19] = test: Antibacterial activity against methicillin resistant Staphylococcus aureus; type: functional
# Enterococcus faecalis [20] = test: Antibacterial activity against Streptococcus faecalis incubated for 8 to 12 hrs by Alamar blue reagent based microdilution broth method; type: functional; details: time 8-12 hrs
# Salmonella typhi = test: Antibacterial activity against Salmonella typhi incubated for 8 to 12 hrs by Alamar blue reagent based microdilution broth method; type: functional, Salmonella enterica subsp. enterica serovar Typhi; details: Salmonella enterica; time 8-12 hrs
# Bacillus subtilis [21] = test: Antibacterial activity against Bacillus subtilis incubated for 8 to 12 hrs by Alamar blue reagent based microdilution broth method; type: functional; details: time 8-12 hrs
# Pseudomonas aeruginosa [22] = test: Antibacterial activity against Pseudomonas aeruginosa incubated for 8 to 12 hrs by Alamar blue reagent based microdilution broth method; type: functional; details: time 8-12 hrs
# Micrococcus luteus [23] = test: Antibacterial activity against Micrococcus luteus; type: functional
# Staphylococcus aureus [24] = test: Antibacterial activity against Staphylococcus aureus TISTR 517 incubated for 8 to 12 hrs by Alamar blue reagent based microdilution broth method; type: functional; details: time 8-12 hrs
# Escherichia coli [25] = test: Antibacterial activity against Escherichia coli; type: functional
# [26] = test system: Staphylococcus epidermidis; test: Antibacterial activity against Staphylococcus epidermidis; type: functional
# Pseudomonas aeruginosa [27] = test: Antibacterial activity against Pseudomonas aeruginosa; type: functional
# Staphylococcus aureus [28] = test: Antibacterial activity against Staphylococcus aureus; type: functional
# Vibrio harveyi [29] = test: Antibacterial activity against Vibrio harveyi 1.8690 incubated for 24 hrs by oxford cup method; type: functional
# Vibrio harveyi [30] = test: Antibacterial activity against Vibrio harveyi SZ-1 incubated for 24 hrs by oxford cup method; type: functional
compound,measurement,setting,value
COc1cc2c(=O)c3c(O)cc(O)cc3oc2cc1O [ALLOATHYRIOL],MIC,Salmonella typhimurium [1],4 µg/mL
same,logP,[2],1.74
COc1c(O)cc2oc3cc(O)c(CC=C(C)C)c(O)c3c(=O)c2c1C/C=C(\C)CCC=C(C)C [COWANIN],MIC,[3],2 µg/mL
same,MIC,Staphylococcus aureus [4],32 µg/mL
same,MIC,Bacillus cereus,32 µg/mL
same,MIC,Salmonella typhimurium [5],64 µg/mL
same,MIC,Staphylococcus aureus [6],2 µg/mL
same,MIC,Micrococcus luteus [7],4 µg/mL
same,MIC,Bacillus subtilis [8],4 µg/mL
CC(C)=CCc1c(O)cc2oc3c(CC=C(C)C)c(O)c(O)c(CC=C(C)C)c3c(=O)c2c1O [GARCINONE E],MIC,Vibrio vulnificus,15.6 µg/mL
same,MIC,Escherichia coli [9],25 µg/mL
same,MIC,Vibrio campbellii,31.2 µg/mL
same,MIC,Vibrio rotiferianus,15.6 µg/mL
same,MIC,Staphylococcus aureus [10],25 µg/mL
same,MIC,Staphylococcus aureus [11],12.5 µg/mL
C=CC(C)(C)c1c(O)cc2oc3c(O)c4c(cc3c(=O)c2c1O)C=CC(C)(C)O4 [GERONTOXANTHONE B],MIC,Micrococcus luteus [12],12.5 µg/mL
same,MIC,Staphylococcus aureus [13],25 µg/mL
same,MIC,Bacillus subtilis [14],> 25 µg/mL
CC(C)=CCc1c(O)cc(O)c2c(=O)c3c(CC=C(C)C)c(O)ccc3oc12 [GERONTOXANTHONE H],MIC,Staphylococcus aureus [15],1.56 µg/mL
same,MIC,Enterococcus faecalis [16],1.56 µg/mL
same,MIC,Micrococcus luteus [12],1.56 µg/mL
same,MIC,Enterococcus faecalis [17],1.56 µg/mL
same,MIC,Staphylococcus aureus [13],1.56 µg/mL
same,MIC,Enterococcus faecalis [18],1.56 µg/mL
same,MIC,Bacillus subtilis [14],1.56 µg/mL
C=CC(C)(C)c1c(O)c(CC=C(C)C)c(O)c2c(=O)c3ccc(O)c(O)c3oc12 [GERONTOXANTHONE I],MIC,Staphylococcus aureus [19],3.13 µg/mL
same,MIC,Enterococcus faecalis [20],3.13 µg/mL
same,MIC,Salmonella typhi,1.1 µg/mL
same,MIC,Bacillus subtilis [21],2.5 µg/mL
same,MIC,Pseudomonas aeruginosa [22],> 50 µg/mL
same,MIC,Micrococcus luteus [23],6.25 µg/mL
same,MIC,Staphylococcus aureus [24],1.1 µg/mL
COc1c(O)cc2oc3cc(O)c(CC=C(C)C)c(O)c3c(=O)c2c1CC=C(C)C [MANGOSTIN],MIC,Staphylococcus aureus [19],6.25 µg/mL
same,MIC,Escherichia coli [25],12.5 µg/mL
same,MIC,[26],1.56 µg/mL
same,MIC,Pseudomonas aeruginosa [27],12.5 µg/mL
same,MIC,Staphylococcus aureus [28],3.13 µg/mL
same,MIC,Micrococcus luteus [23],1 µg/mL
COc1cc(O)cc2c1C(=O)c1c(O)cc(C)cc1C2=O [QUESTIN],MIC,Vibrio harveyi [29],< 50 µg/mL
same,MIC,Vibrio harveyi [30],< 50 µg/mL
COc1c(O)cc2oc3cc(O)cc(O)c3c(=O)c2c1C/C=C(\C)CCC=C(C)C [RUBRAXANTHONE],MIC,[3],4 µg/mL
same,MIC,Staphylococcus aureus [10],1.25 µg/mL
same,MIC,Micrococcus luteus [7],2 µg/mL
same,MIC,Staphylococcus aureus [28],12 µg/mL
same,MIC,Bacillus subtilis [8],1 µg/mL
